# Target: T1, GPR119 (Homo sapiens, UniProt Q8TDV5)
# T1 construct: host or cells: CHO-K1 (CRE-bla reporter, doxycycline-induced)
# T1 sequence (Q8TDV5 1-335): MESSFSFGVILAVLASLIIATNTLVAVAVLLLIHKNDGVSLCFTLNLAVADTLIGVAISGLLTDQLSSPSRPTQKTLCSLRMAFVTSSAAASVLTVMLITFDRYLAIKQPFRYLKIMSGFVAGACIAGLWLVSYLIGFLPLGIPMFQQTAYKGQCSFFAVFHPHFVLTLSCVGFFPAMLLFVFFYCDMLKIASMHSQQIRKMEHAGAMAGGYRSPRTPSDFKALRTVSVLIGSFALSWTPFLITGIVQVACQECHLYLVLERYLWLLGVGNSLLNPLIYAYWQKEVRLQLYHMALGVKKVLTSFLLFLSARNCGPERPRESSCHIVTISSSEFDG
# Test: Controlling Effect of GPR119 in CRE-bla CHO-K1 Cells (EC50)
# Assay type: cell-based
# Settings: GPR119 CRE-bla CHO-K1 cell line, 5 hr incubation with compound, β-lactamase LiveBLAzer-FRET B/G readout; read-out: controlling effect against GPR119 in CRE-bla CHO-K1 cell line (EC50)
# Protocol: Controlling Effect of GPR119 in CRE-bla CHO-K1 Cells (EC50)
# The day before the experiment, GPR119 CRE-bla CHO-K1 cell line purchased from Invitrogen was seeded in a 96 black well plate in an amount of 80 μl at a density of 5×10^4 cells. After the seeding, 10 μl of doxycycline in a concentration of 1 μg/ml was added to each well and incubated in an incubator at 37° C. under 5% CO2 for about 16 to 20 hr.
# The day of experiment, sample compounds were performed a 10-fold serial dilution with a culture medium at various concentrations of 1 uM to […]. Considering that the culture medium used in the seeding and doxycycline are together applied, the sample compounds were diluted to a 5-fold dilution of the planned concentration. 20 μl of the compound diluted with the culture medium was added to each well and incubated in the incubator for 5 hr. The compound-untreated group was added with 20 μl of 0.5% dimethyl sulfoxide (DMSO) diluted with the culture medium. After 5 hr from the incubation, substrate mixture of a 6-fold concentration were prepared; 6 μl of 1 mM LiveBLAzer™-FRET B/G(CCF4-AM) substrate, 60 μl of solution B, 904 μl of solution C and 30 μl of solution D. 12 μl of the substrate mixture was added to each well and allowed to be kept at room temperature for 2 hr with shading the light. Fluorescence intensity value of blue channel and green channel was determined by a fluorescence microplate reader at 409 nm/460 nm and 409 nm/[…] (excitation/emission), respectively. In order to confirm the controlling effect of the inventive compounds against GPR119, EC50 (half maximal effective concentration) was determined based on the determined values. EC50, the concentration at which 50% activity of β-lactamase, was determined according to the following Equation: Equation=[(Ti−Tz)/(C−Tz)]×100
# [Wherein, Ti: Cell density of the compound-treated group; Tz: Cell density of the negative control group; and C: Cell density of the positive control group]
row,SMILES,EC50
1,"CC(C)c1noc(N2CCC(Oc3ncnc4c(-c5ccc(S(C)(=O)=O)cc5)csc34)C2)n1 (stereo not drawn) [Example 58, 4-[1-(3-isopropyl-[1,2,4]oxadiazol-5-yl)-pyrrolidin-3-yloxy]-7-(4-methanesulfonyl-phenyl)-thieno[3,2-d]pyrimidine]",100 to 1000 nM
2,"CC(C)c1noc(C2CCN(c3ncnc4c(-c5ccc([N+](=O)[O-])cc5)csc34)CC2)n1 [Example 14, 4-[4-(3-isopropyl-[1,2,4]oxadiazol-5-yl)-piperidin-1-yl]-7-(4-nitro-phenyl)-thieno[3,2-d]pyrimidine]",> 1000 nM
3,"CS(=O)(=O)c1ccc(-c2csc3c(N4CCC(c5nc(-c6ccccc6)no5)CC4)ncnc23)cc1 [Example 8, 5-(1-(7-(4-(methanesulfonylphenyl)phenyl)thieno[3,2-d]pyrimidin-4-yl)piperidin-4-yl)-3-phenyl-1,2,4-oxadiazole]",100 to 1000 nM
4,"Cn1cc(-c2ccc(S(C)(=O)=O)cc2)c2ncnc(OC3CCNCC3)c21 [Example 26, 5-methyl-7-(4-methanesulfonyl-phenyl)-4-(piperidin-4-yloxy)-5H-pyrrolo[3,2-d]pyrimidine]",> 1000 nM
5,"CS(=O)(=O)c1ccc(-c2csc3c(N4CCCC4)ncnc23)cc1 [Example 2, 7-(4-methanesulfonyl-phenyl)-4-(pyrrolidin-1-yl)thieno[3,2-d]pyrimidine]",> 1000 nM
6,"CCc1cnc(N2CCC(Nc3ncnc4c(-c5ccc(S(C)(=O)=O)cc5)csc34)CC2)nc1 [Example 111, N-(1-(5-ethylpyrimidin-2-yl)piperidin-4-yl)-7-(4-methanesulfonyl-phenyl)thieno[3,2-d]pyrimidin-4-amine]",> 1000 nM
7,"CC(C)c1noc(N2CCC(Oc3ncnc4c(-c5ccc([N+](=O)[O-])cc5)cn(C)c34)CC2)n1 [Example 42, 3-isopropyl-5-(4-(5-methyl-7-(4-nitrophenyl)-5H-pyrrolo[3,2-d]pyrimidin-4-yloxy)piperidin-1-yl)-1,2,4-oxadiazole]",> 1000 nM
8,"CCc1cnc(N2CCN(c3ncnc4c(-c5ccc(S(C)(=O)=O)cc5)csc34)CC2)nc1 [Example 11, 4-(4-(5-ethylpyrimidin-2-yl)piperazin-1-yl)-7-(4-methanesulfonyl-phenyl)thieno[3,2-d]pyrimidine]",100 to 1000 nM
9,"COc1ccc(-c2csc3c(OC4CCN(c5nc(C(C)C)no5)CC4)ncnc23)cc1F [Example 98, 7-(3-fluoro-4-methoxy-phenyl)-4-[1-(3-isopropyl-[1,2,4]oxadiazol-5-yl)-piperidin-4-yloxy]-thieno[3,2-d]pyrimidine]",> 1000 nM
10,"CCc1cnc(N2CCC(Oc3ncnc4c(-c5ccc(S(C)(=O)=O)cc5)cn(C)c34)CC2)nc1 [Example 27, 4-(1-(5-ethylpyrimidin-2-yl)piperidin-4-yloxy)-5-methyl-7-(4-methanesulfonyl-phenyl)-5H-pyrrolo[3,2-d]pyrimidine]",< 100 nM
11,"CC(C)(C)OC(=O)N1CCN(c2ncnc3c(-c4ccc(S(C)(=O)=O)cc4)csc23)CC1 [Example 10, tert-butyl 4-(7-(4-methanesulfonyl-phenyl)thieno[3,2-d]pyrimidin-4-yl)piperazine-1-carboxylate]",100 to 1000 nM

# Further lines, results first:
row,EC50,SMILES
1,< 100 nM,"CC(C)(C)c1noc(N2CCC(Oc3ncnc4c(-c5ccc(-n6cncn6)cc5)csc34)CC2)n1 [Example 119, 5-(4-(7-(4-(1H-1,2,4-triazol-1-yl)phenyl)thieno[3,2-d]pyrimidin-4-yloxy)piperidin-1-yl)-3-tert-butyl-1,2,4-oxadiazole]"
2,< 100 nM,"CS(=O)(=O)c1ccc(-c2csc3c(OC4CCN(Cc5ccccc5)CC4)ncnc23)c(F)c1 [Example 91, 4-(1-benzylpiperidin-4-yloxy]-7-(2-fluoro-4-methanesulfonyl-phenyl)thieno[3,2-d]pyrimidine]"
3,< 100 nM,"CS(=O)(=O)c1ccc(-c2csc3c(OC4CCN(c5ncc(C6CC6)cn5)CC4)ncnc23)cc1 [Example 56, 4-[1-(5-cyclopropyl-pyrimidin-2-yl)-piperidin-4-yloxy]-7-(4-methanesulfonyl-phenyl)-thieno[3,2-d]pyrimidine]"
4,< 100 nM,"CCCS(=O)(=O)c1ccc(-c2csc3c(N4CCC(c5nc(C(C)C)no5)CC4)ncnc23)c(F)c1 [Example 24, 7-4-(2-fluoro-(4-propylsulfonyl)phenyl)-4-[4-(3-isopropyl-[1,2,4]oxadiazol-5-yl)-piperidin-1-yl]-thieno[3,2-d]pyrimidine]"
5,< 100 nM,"CC(C)(C)c1noc(N2CCC(Oc3ncnc4c(-c5ccc(S(C)(=O)=O)cc5)csc34)CC2)n1 [Example 53, 3-tert-butyl-5-(4-(7-(4-methanesulfonyl-phenyl)thieno[3,2-d]pyrimidin-4-yloxy)piperidin-1-yl)-1,2,4-oxadiazole]"
6,< 100 nM,"CCc1cnc(N2CCC(Oc3ncnc4c(-c5ccc(S(C)(=O)=O)cc5)cn(CC)c34)CC2)nc1 [Example 32, 5-ethyl-4-(1-(5-ethylpyrimidin-2-yl)piperidin-4-yloxy)-7-(4-methanesulfonyl-phenyl)-5H-pyrrolo[3,2-d]pyrimidine]"
7,< 100 nM,"CCCS(=O)(=O)c1ccc(-c2csc3c(OC4CCN(c5nc(C(C)C)no5)CC4)ncnc23)cc1 [Example 106, 4-[1-(3-isopropyl-[1,2,4]oxadiazol-5-yl)-piperidin-4-yloxy]-7-(4-propylsulfonyl-phenyl)-thieno[3,2-d]pyrimidine]"
8,< 100 nM,"CS(=O)(=O)c1ccc(-c2csc3c(OC4CCN(c5nc(C6CCCC6)no5)CC4)ncnc23)c(F)c1 [Example 70, 7-(2-fluoro-4-methanesulfonyl-phenyl)-4-[1-(3-cyclopentyl-[1,2,4]oxadiazol-5-yl)piperidin-4-yloxy]thieno[3,2-d]pyrimidine]"
9,< 100 nM,"CC(C)c1nc(N2CCC(Oc3ncnc4c(-c5ccc(S(C)(=O)=O)cc5F)csc34)CC2)no1 [Example 95, 7-(2-fluoro-4-methanesulfonyl-phenyl)-4[1-(5-isopropyl-[1,2,4]oxadiazol-3-yl)-piperidin-4-yloxy]-thieno[3,2d]pyrimidine]"
10,< 100 nM,"CCCc1cnc(N2CCC(Oc3ncnc4c(-c5ccc(S(C)(=O)=O)cc5F)csc34)CC2)nc1 [Example 83, 7-(2-fluoro-4-methanesulfonyl-phenyl)-4-[1-(5-propyl-pyrimidin-2-yl)-piperidin-4-yloxy]-thieno[3,2-d]pyrimidine]"
11,< 100 nM,"CS(=O)(=O)c1ccc(-c2csc3c(N4CCC(c5nc(C6CC6)no5)CC4)ncnc23)c(F)c1 [Example 18, 4-[4-(3-cyclopropyl-[1,2,4]oxadiazol-5-yl)-piperidin-1-yl]-7-(2-fluoro-4-methanesulfonyl-phenyl)-thieno[3,2-d]pyrimidine]"
12,< 100 nM,"CCc1cnc(N2CCC(Oc3ncnc4c(-c5ccc(S(C)(=O)=O)cc5)csc34)C2)nc1 (stereo not drawn) [Example 57, 4-[1-(5-ethylpyrimidin-2-yl)-pyrrolidin-3-yloxy]-7-(4-methanesulfonyl-phenyl)-thieno[3,2-d]pyrimidine]"
13,< 100 nM,"CC(C)c1noc(C2CCN(c3ncnc4c(-c5ccc(S(=O)(=O)C6CCCC6)cc5)csc34)CC2)n1 [Example 23, 7-(4-(cyclopentylsulfonyl)phenyl)-4-[4-(3-isopropyl-[1,2,4]oxadiazol-5-yl)-piperidin-1-yl]-thieno[3,2-d]pyrimidine]"
14,< 100 nM,"CCc1cnc(N2CCC(Oc3ncnc4c(-c5ccc(-n6cnnn6)cc5)cn(C)c34)CC2)nc1 [Example 122, 7-(4-(1H-tetrazol-1-yl)phenyl)-4-(1-(5-ethylpyrimidin-2-yl)piperidin-4-yloxy)-5-methyl-5H-pyrrolo[3,2-d]pyrimidine]"
15,< 100 nM,"CC(=O)c1ccc(-c2csc3c(OC4CCN(c5nc(C(C)C)no5)CC4)ncnc23)cc1 [Example 103, 1-(4-{4-[1-(3-isopropyl-[1,2,4]oxadiazol-5-yl)-piperidin-4-yloxy]-thieno[3,2-d]pyrimidin-7-yl}-phenyl)-ethanone]"
16,< 100 nM,"Cn1cc(-c2ccc(S(C)(=O)=O)cc2)c2ncnc(OC3CCN(C(=O)OC(C)(C)C)CC3)c21 [Example 25, tert-butyl 4-(5-methyl-7-(4-methanesulfonyl-phenyl)-5H-pyrrolo[3,2-d]pyrimidin-4-yloxy)piperidine-1-carboxylate]"
